Experimental data reported in paper PMC8821551, “Binding of cationic analogues of α-MSH to lipopolysaccharide and disruption of the cytoplasmic membranes caused bactericidal action against Escherichia coli” (Scientific Reports, 2022).

Legend:
[1] = system: E. coli ATCC 25922; assay: Killing assay (killing kinetics), logarithmic phase cells; type: cell-based, Escherichia coli; details: logarithmic phase, 10^5 CFU/mL; for log reduction in cell viability: HEPES-glucose buffer pH 7.4, 37 °C, average ± SE, three independent experiments, SEM; for killing activity (decrease in cell viability), in words: low concentrations 1 µM and 2 µM, up to 2 h
Protocol: (§1) For this study, a well-characterized strain of E. coli (ATCC 25922) was used. The strain was stored at − 80 °C in 15% (v/v) glycerol until sub-cultured onto LB agar plates for use.
(§2) The antibacterial activity of α-MSH and its cationic analogues was determined against both logarithmic (2–3 h) and stationary (16–18 h) phase of E. coli cells in LB medium. The bacterial suspension was pelleted, washed, and diluted in HEPES-glucose buffer (5 mM HEPES, 20 mM glucose, pH 7.4) to adjust the cell density by measuring the OD = 0.5 (10^8 CFU/mL) at 600 nm using a spectrophotometer. This suspension was used to obtain the desired inoculum sizes (10^5 CFU/mL, 10^6 CFU/mL, and 10^7 CFU/mL). The inoculums were exposed to various concentrations of peptides (1 µM, 2 µM, 5 µM, and 10 µM) and incubated at 37 °C. Untreated E. coli cells were also included as a control. At selected time points (0 min, 15 min, 30 min, 60 min, and 120 min), aliquots were taken out, and survival of E. coli cells was determined by quantitative plating on LB agar after appropriate dilution in the same buffer. The plates were incubated overnight at 37 °C, followed by colony counting. Each experiment was performed at least three times on three independent days.

[2] = system: stationary phase E. coli cells; assay: Killing assay, stationary phase cells; type: cell-based, Escherichia coli; details: 10^5 CFU/mL, HEPES-glucose buffer, 37 °C, peptide 10 µM, 1 h, mean ± SE, three independent days, SEM
Protocol: as §1, §2

[3] = system: E. coli outer membrane; assay: Outer membrane permeabilization assay (NPN uptake); type: cell-based, Escherichia coli; details: relative to 10 µM polymyxin B = 100%; for %NPN uptake: 10^8 CFU/mL mid-log cells, 10 μM NPN
Protocol: The outer membrane permeabilization assay was done as described in the literature with slight modifications. Briefly, bacterial cells were grown to mid-log phase in LB medium, washed and diluted to 10^8 CFU/mL in HEPES-glucose buffer. Next, this bacterial suspension was treated with 10 μM NPN probe and subsequently challenged with increasing concentrations of peptides (1 µM to 20 µM). Changes in the fluorescence intensity of NPN were measured with the help of Shimadzu RF-5301 PC spectrofluorimeter (excitation at 350 nm and emission at 420 nm). Increased intensity of emission resulted from the damage to the bacterial outer membrane and was measured until no further increase in fluorescence was observed. NPN uptake was calculated using the following formula: %NPNuptake=Fobs-F0/F100-F0×100 where Fobs is the NPN fluorescence intensity after the peptide treatment, F0 is the NPN fluorescence with untreated E. coli cells, and F100 is the NPN fluorescence in the presence of 10 µM polymyxin B (a positive control).

[4] = system: dye-loaded E. coli cells; assay: Viability of DiSC3(5) dye-loaded cells by plating; type: cell-based, Escherichia coli; details: dye-loaded cells 10^6, HEPES-glucose buffer, two different days
Protocol: The membrane depolarization of E. coli cells was determined using a potentiometric fluorescent probe DiSC3(5), as described elsewhere. Briefly, mid-log phase E. coli cells were diluted to 10^6 CFU/mL in the same HEPES-glucose buffer and were incubated with DiSC3(5) and EDTA at 0.4 µM and 0.2 mM concentrations, respectively, for 1 h in the dark at 37 °C, till the maximum uptake of the probe occurred. Increasing concentrations of the studied peptides from 1 µM to 10 µM were then added to these dye-loaded cells in a quartz cuvette, and the fluorescence intensity was measured on spectrofluorimeter (Shimadzu RF-5301 PC) set as excitation at 622 nm and emission at 670 nm. The increase in fluorescence intensity accounted for the dissipation of membrane potential caused due to peptide treatment. Cells treated with 10 µM melittin were used as a positive control. Simultaneously, the dye-loaded cells were plated onto LB agar to estimate bacterial cell death.
Figure S1: Survival of dye-loaded cells (10^6) treated with various concentrations of peptides that correspond to the inner membrane depolarization. The dye-loaded E. coli cells suspended in HEPES-glucose buffer ([…]) were incubated with different concentration of α-MSH and its analogues for 2 minutes and further diluted in the same buffer and plated on LB agar plates. The plates were further incubated at 37 °C for 16 h. Next day the colonies were counted.^1 The experiment was performed on two different days and the representative values (mean ± SE) are shown in graph. (⁎, P < 0.05; ⁎⁎, P < 0.01, compared to that of control at the same concentration).

[5] = system: E. coli cells; assay: Membrane permeabilization assay (PI uptake, flow cytometry); type: cell-based, Escherichia coli; details: span over rising peptide concentrations; 10^6 CFU/mL mid-log cells, PI 1.3 µg/mL, 37 °C, 1 h, flow cytometry; three independent days
Protocol: Membrane permeabilization of E. coli cells was determined via propidium iodide (PI) uptake assay through flow cytometry as described previously with slight modifications. Briefly, mid-log phase E. coli cells were adjusted to 10^6 CFU/mL in the HEPES-glucose buffer. Next, cells were incubated with propidium iodide (PI) at 1.3 µg/mL concentration for 30 min in the dark. After incubation, PI-loaded cells were treated with a range of peptide concentrations, i.e., 1 µM, 2 µM, 5 µM, and 10 µM, at 37 °C for 1 h, and PI fluorescence intensity was measured through Becton Dickinson (BD) FACS verse (San Jose, CA) flow cytometer using excitation at 544 nm and emission at 620 nm.
Figure S2: Histograms of E. coli cells treated with 2 µM concentration of α-MSH and its analogues and 1 µM concentration of polymyxin B for 1 h. Towards monitoring the membrane permeabilizations of E. coli cells, propidium iodide (PI) uptake assay through flow cytometry was performed using the previously standardized method with mild modifications ^2. Briefly, mid-log phase grown E. coli cells (10^6 CFU/mL) suspended in the HEPES-glucose buffer were incubated with propidium iodide (PI) at a concentration of 1.3 µg/mL for 30 min in dark. After incubation, PI loaded cells were treated with a range of peptide concentrations; 1 µM, 2 µM, 5 µM and 10 µM at 37 °C for 1 h, and PI fluorescence intensity was measured through Becton Dickinson (BD) FACS verse (San Jose, CA) flow cytometer using excitation at 544 nm and emission at 620 nm.

[6] = system: LPS from E. coli O55:B5; assay: LPS binding assay (BODIPY-TR-cadaverine displacement); parameters: species or system Escherichia coli; details: BC displacement, LPS 50 μg/mL, 5 µM BC, 50 mM Tris buffer pH 7.4, peptide 0.25 to 20 µM, Hill equation fit, mean Kd ± SD of two independent experiments, read-out: Kd (dissociation constant) with LPS
Protocol: The binding of α-MSH and its analogues to LPS was checked using BODIPY-TR-cadaverine (BC) as a fluorescent probe[24],[42]. BC fluorescence decreases when bound to cell-free LPS and increases when it is freely accessible in solution. LPS (50 μg/mL) from E. coli O55:B5 (Sigma-Aldrich, India) was incubated with 5 µM of BC in 50 mM Tris buffer (pH 7.4) for 4 h. Next, 800 µL of this LPS-BC mixture was added to varying concentrations (0.25 µM to 20 µM) of the peptides in a quartz cuvette, and the BC fluorescence was measured on a spectrofluorimeter (Shimadzu RF-5301 PC) with excitation at 580 nm and emission at 620 nm. Each experiment was done in duplicate independently. Increase in fluorescence intensities with increase in concentration of peptides were plotted and the dissociation constant (Kd) was calculated from each individual data set and is presented as mean value ± SD using Igor Pro 6.36 (Y = Bmax × Xˆh/(Kdˆh + Xˆh); where X: concentration of peptide (µM), Y: fluorescence intensity (a.u.), h: Hill slope)[43]. The molecular mass of LPS was taken as 20,000 Da as described elsewhere, and its concentration was calculated accordingly.
Table S1: The dissociation constant (Kd) of α-MSH and its analogues with LPS. […]

[7] = peptide 10 µM, 2 min of exposure

Row | Compound | log reduction in cell viability ([1]; peptide 10 µM, 1 h) [log] | killing activity (decrease in cell viability), in words [1] | change of killing activity at 5 µM against lower concentrations, in words ([1]; peptide 5 µM) | log reduction in cell viability [2] [log] | maximum NPN uptake ([3]; over peptide concentrations from 1 to 20 μM) [%] | log reduction in cell viability of dye-loaded cells ([4]; peptide 5 µM, 2 min exposure) [log] | log reduction in cell viability of dye-loaded cells [4, 7] [log] | PI positive cells [5] | log reduction in cell viability ([1]; peptide 5 µM, 2 h) [log] | log reduction in cell viability ([1]; peptide 10 µM, 2 h) [log] | %NPN uptake ([3]; peptide 1 μM, HEPES-glucose buffer, average of three independent days) [%] | %NPN uptake ([3]; peptide 20 μM (highest concentration)) [%] | Kd [6] [µM]
1 | CSCC[C@H](NC(=O)[C@H](CO)NC(=O)[C@H](Cc1ccc(O)cc1)NC(=O)[C@H](CCCCN)NC(C)=O)C(=O)N[C@@H](CCC(=O)O)C(=O)N[C@@H](Cc1c[nH]cn1)C(=O)N[C@@H](Cc1ccccc1)C(=O)N[C@@H](CCCNC(=N)N)C(=O)N[C@@H](Cc1c[nH]c2ccccc12)C(=O)NCC(=O)N[C@@H](CCCCN)C(=O)N1CCC[C@H]1C(=O)N[C@H](C(N)=O)C(C)C [K-MSH] | 1.9 ± 0.3 | very slight decrease in the cell viability | marginal increase in activity | 1.7 ± 0.3 | 16.2 | 0.7 | 0.6 | 21.8–26.5% |  |  |  |  | 
2 | CSCC[C@H](NC(=O)[C@H](CCCCN)NC(=O)[C@H](Cc1ccc(O)cc1)NC(=O)[C@H](CCCCN)NC(C)=O)C(=O)N[C@@H](CCC(=O)O)C(=O)N[C@@H](Cc1c[nH]cn1)C(=O)N[C@@H](Cc1ccccc1)C(=O)N[C@@H](CCCNC(=N)N)C(=O)N[C@@H](Cc1c[nH]c2ccccc12)C(=O)NCC(=O)N[C@@H](CCCCN)C(=O)N1CCC[C@H]1C(=O)N[C@H](C(N)=O)C(C)C [KK-MSH] |  | very slight decrease in the cell viability |  | 1.8 ± 0.05 |  | 0.5 | 1.2 |  | 1.7 ± 0.4 | 2.6 ± 0.5 | 6.8 | 37.7 | 
3 | polymyxin B [reference compound] |  |  |  |  |  |  |  |  |  |  |  |  | 2.4 ± 0.84
